Experimental data: US6127131A (Synaptic Pharmaceutical Corporation, priority 1998, dated 2000)

Columns and labels:
[1] = biological target: T1, glycine transporter encoded by rB20a (Rattus norvegicus, UniProt P28572); experiment: Competition for [3H]glycine uptake by COS-7 cells transfected with rB20a; type: cell-based; conditions: agents at 1 mM (Table 1)
T1 construct: expressed in transfected cells; host or cells: COS-7 cells, transient transfection with pSVL-rB20a
T1 sequence (P28572 1-638): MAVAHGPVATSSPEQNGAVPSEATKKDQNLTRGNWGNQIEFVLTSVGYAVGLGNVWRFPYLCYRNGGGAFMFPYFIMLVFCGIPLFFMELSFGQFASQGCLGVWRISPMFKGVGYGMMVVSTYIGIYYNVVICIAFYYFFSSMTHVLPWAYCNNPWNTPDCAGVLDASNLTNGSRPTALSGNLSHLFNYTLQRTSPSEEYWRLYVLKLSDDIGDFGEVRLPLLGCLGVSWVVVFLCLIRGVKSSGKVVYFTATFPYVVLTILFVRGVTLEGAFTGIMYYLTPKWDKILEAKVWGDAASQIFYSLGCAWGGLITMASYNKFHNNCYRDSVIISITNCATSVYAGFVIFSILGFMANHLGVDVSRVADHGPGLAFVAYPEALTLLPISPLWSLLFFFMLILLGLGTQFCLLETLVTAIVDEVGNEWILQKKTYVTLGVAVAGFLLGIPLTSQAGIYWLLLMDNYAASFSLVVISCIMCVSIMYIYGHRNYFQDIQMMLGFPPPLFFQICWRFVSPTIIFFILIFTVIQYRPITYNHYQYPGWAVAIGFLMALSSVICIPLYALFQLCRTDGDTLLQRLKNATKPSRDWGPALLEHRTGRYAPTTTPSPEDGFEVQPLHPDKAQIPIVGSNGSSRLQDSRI
Protocol: These two clones were constructed into a full-length clone (designated rB20a) by ligation at their internal Nco I sites and then cloned into the eukaryotic expression vector pSVL (Pharmacia LKB Biotechnology, Piscataway, N.J.). Transient transfection of COS cells was carried out using DEAE-dextran with DMSO according to the method of Lopata et al. (1984) with minor modifications. COS cells were grown in six-well plates (37° C.,5%CO2) in high glucose Dulbecco's modified Eagle medium supplemented with 10% bovine calf serum, 100 U/ml penicillin G, and 100 μg/ml streptomycin sulfate. Cells were routinely used two days after transfection for transport studies.
(§1) Plates were incubated at 37° C. for 10 or 20 minutes, then washed rapidly 3× with HBS. Cells were solubilized with 0.05% sodium deoxycholate/0.1N NaOH (1 ml/well), 0.5 ml aliquots were removed, neutralized with 1N HCl, and radioactivity was determined by scintillation counting. Protein was quantified in an aliquot of the solubilized cells with the Bradford Reagent (Biorad, Richmond, Calif.), according to the manufacturer's directions.
Nonspecific uptake was determined with 1 mM

[2] = biological target: T2, transporter encoded by rB20a (Rattus norvegicus, UniProt P28572); experiment: Screen of COS cells transfected with rB20a for transport of radiolabeled neurotransmitters and amino acids; type: cell-based; conditions: data not shown
T2 sequence (P28572 1-638): T1 sequence (P28572 1-638)
Protocol: as §1

Row | Compound | competition for [3H]glycine uptake (in words) [1] | effect of rB20a expression on uptake of the radiolabeled substrate [2]
1 | N[C@@H](CO)C(=O)O [L-serine] | Neither α-(methylamino) isobutyric acid (1 mM), a substrate for system A, nor L-serine (1 mM), a substrate for system ASC, significantly competed | 
2 | CNC(C)(C)C(=O)O [α-(methylamino) Isobutyric acid] | Neither α-(methylamino) isobutyric acid (1 mM), a substrate for system A, nor L-serine (1 mM), a substrate for system ASC, significantly competed | 
3 | [^3 H]glutamate |  | did not significantly alter
